The source of these data is PubChem BioAssay (NCI).

Some test systems named below: SF-539 CNS; OVCAR-3 ovarian; SN12C renal; SNB-19 CNS; HCT-15 colon; HT29 colon; BT-549 breast; SR leukemia; U251 CNS; HCT-116 colon; UO-31 renal; SNB-75 CNS; TK-10 renal; NCI-H23 lung; NCI-H226 lung.
What all share (experiment): inhibition of tumour cell growth, NCI panel, 48 h

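Method: 48-hour compound exposure of cells in 96-well plates, five concentrations, linear interpolation of endpoints. TGI marks complete inhibition of growth.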

`O=C(Nc1ccccc1)N(C1=NCC(CI)S1)c1ccc(F)cc1F` (stereo not given): the TGI in the test on SF-539 CNS, with OVCAR-3 ovarian, in the test with SN12C renal, in the test on SNB-19 CNS, in the test on HCT-15 colon and in the test with HT29 colon was over 100 µM each time. Moreover, the TGI with BT-549 breast is 89.4 µM; with SR leukemia it was 65.7 µM; in the test with U251 CNS, over 100 µM; in the test with HCT-116 colon it was over 100 µM; in the test on UO-31 renal, over 100 µM; in the test with SNB-75 CNS, over 100 µM. The TGI with TK-10 renal, in the test on NCI-H23 lung and in the test on NCI-H226 lung was over 100 µM throughout.
In the case of `CC1=C/C(=N\O)C(C(O)(C(F)(F)F)C(F)(F)F)C(C)(C)C1` (stereo not given), the TGI in the test on SF-539 CNS, with OVCAR-3 ovarian, in the test on SN12C renal, with SNB-19 CNS, in the test with HCT-15 colon and in the test with HT29 colon was over 10 µM each time. In addition, the TGI in the test on BT-549 breast, with SR leukemia, with U251 CNS, in the test with HCT-116 colon, in the test with UO-31 renal and with SNB-75 CNS was over 10 µM each time. Further, the TGI in the test on TK-10 renal, in the test with NCI-H23 lung and in the test with NCI-H226 lung was over 10 µM each time.
